What was measured:
[1] = target: T1, full-length NS3/NS4A-2 (HCV NS3 protease) (Hepatitis C virus genotype 1a, UniProt P27958); assay: NS3-NS4 protease assay / NS3 inhibition assay (RETS1 substrate, fluorescence kinetic read); type: biochemical; conditions: recombinant E. coli or Baculovirus full-length NS3 with NS4A-2; read-out: NS3-NS4 IC50
T1 construct: Recombinant E. coli or Baculovirus full-length NS3 was diluted to 3.33 μM with assay buffer; made in house; host or cells: E. coli or baculovirus (BV) expression system
Outline: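 Full-length NS3 from E. coli (2 nM in assay) or baculovirus (3 nM) was precomplexed with excess NS4A-2 peptide, then preincubated 10 min at room temperature with serially diluted compounds starting at 50 microM. Reaction was started with RETS1 substrate at 8 μM before addition and read kinetically for 30 min (ex 335/em 495 nm). Four-parameter IC50s were converted to Ki by Cheng-Prusoff using Km 2.03 μM (E. coli) or 1.74 μM (BV).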

[2] = tested on: HCV sub-genomic replicon in GS4.3 cells (HuH-7 hepatoma cells); assay: Quantitation by ELISA of Neomycin phosphotransferase II (NPTII) in the HCV sub-genomic replicon, GS4.3; type: cell-based, hepatitis C virus; conditions: Hepatitis C virus, Huh-7; GS4.3 cells, 72 h incubation, NPTII ELISA; read-out: Replicon EC50
Outline: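 HuH-7 GS4.3 cells carrying HCV sub-genomic replicon 1377/NS3-3′, treated 72 h at 37 °C without G418 with 3-fold dilutions from 10 μM to 56 pM (1% DMSO). NPTII in cell lysates measured by direct ELISA with TMB readout at 450 nm. EC50 from 4-parameter fit of percent DMSO-control signal.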

T1 sequence (P27958 1027-1657): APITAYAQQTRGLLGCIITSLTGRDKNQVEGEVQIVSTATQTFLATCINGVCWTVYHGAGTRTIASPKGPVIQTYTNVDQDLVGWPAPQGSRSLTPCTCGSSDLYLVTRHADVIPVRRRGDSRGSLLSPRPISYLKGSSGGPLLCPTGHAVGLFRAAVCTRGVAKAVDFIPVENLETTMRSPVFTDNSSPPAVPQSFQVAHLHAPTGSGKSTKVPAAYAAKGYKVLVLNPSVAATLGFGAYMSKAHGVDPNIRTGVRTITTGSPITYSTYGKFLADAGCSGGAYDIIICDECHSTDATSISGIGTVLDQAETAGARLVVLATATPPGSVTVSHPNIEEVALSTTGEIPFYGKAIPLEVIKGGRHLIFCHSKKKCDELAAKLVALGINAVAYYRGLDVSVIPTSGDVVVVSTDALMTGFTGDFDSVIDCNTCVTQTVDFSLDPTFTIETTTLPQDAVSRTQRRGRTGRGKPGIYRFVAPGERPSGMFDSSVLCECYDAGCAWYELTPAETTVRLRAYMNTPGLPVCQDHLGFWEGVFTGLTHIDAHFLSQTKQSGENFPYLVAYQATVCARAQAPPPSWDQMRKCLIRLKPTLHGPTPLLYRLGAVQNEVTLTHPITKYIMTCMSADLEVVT

| Structure (SMILES) | IC50 [1] [nM] | EC50 [2] [nM] |
| --- | --- | --- |
| CC(C)(C)OC(=O)N[C@H]1CCCCC/C=C\[C@@H]2C[C@@]2(C(=O)NCC#N)NC(=O)[C@@H]2C[C@@H](OC(=O)N3Cc4cccc(F)c4C3)CN2C1=O [Compound 615] | < 1000 | < 10000 |
| CC(C)(C)CNC(=O)[C@@]12C[C@H]1/C=C\CCCCC[C@H](NC(=O)OC(C)(C)C)C(=O)N1C[C@H](OC(=O)N3Cc4cccc(F)c4C3)C[C@H]1C(=O)N2 [Compound 616] | < 1000 | < 1000 |
| CC(C)(C)OC(=O)N[C@H]1CCCCC/C=C\[C@@H]2C[C@@]2(C(=O)NCc2cccc(C(=O)O)c2)NC(=O)[C@@H]2C[C@@H](OC(=O)N3Cc4cccc(F)c4C3)CN2C1=O [Compound 617] | < 100 | > 10000 |
| CC(NC(=O)[C@@]12C[C@H]1/C=C\CCCCC[C@H](NC(=O)OC(C)(C)C)C(=O)N1C[C@H](OC(=O)N3Cc4cccc(F)c4C3)C[C@H]1C(=O)N2)c1ccncc1 (stereo partly shown) [Compound 618] | < 100 | < 10000 |
| CC(C)(C)OC(=O)N[C@H]1CCCCC/C=C\[C@@H]2C[C@@]2(C(=O)NCC2(O)CC2)NC(=O)[C@@H]2C[C@@H](OC(=O)N3Cc4cccc(F)c4C3)CN2C1=O [Compound 619] | < 100 | < 1000 |
| CC(C)(C)OC(=O)N[C@H]1CCCCC/C=C\[C@@H]2C[C@@]2(C(=O)NCCO)NC(=O)[C@@H]2C[C@@H](OC(=O)N3Cc4cccc(F)c4C3)CN2C1=O [Compound 620] | < 1000 | < 10000 |
| CCCNC(=O)[C@@]12C[C@H]1/C=C\CCCCC[C@H](N)C(=O)N1C[C@H](OC(=O)N3Cc4cccc(F)c4C3)C[C@H]1C(=O)N2 [Compound 621] | > 10000 | > 10000 |
| N[C@H]1CCCCC/C=C\[C@@H]2C[C@@]2(C(=O)NCC2CC2)NC(=O)[C@@H]2C[C@@H](OC(=O)N3Cc4cccc(F)c4C3)CN2C1=O [Compound 622] | < 10000 | < 10000 |
| O=C1N[C@]2(C(=O)NCC3CC3)C[C@H]2/C=C\CCCCC[C@H](NC2CCC2)C(=O)N2C[C@H](OC(=O)N3Cc4cccc(F)c4C3)C[C@@H]12 [Compound 624] | < 10000 | < 1000 |
| CCCNC(=O)[C@@]12C[C@H]1/C=C\CCCCC[C@H](NCc1ccc(F)c(F)c1)C(=O)N1C[C@H](OC(=O)N3Cc4cccc(F)c4C3)C[C@H]1C(=O)N2 [Compound 625] | < 10000 | < 10000 |
| O=C1N[C@]2(C(=O)NCC3CC3)C[C@H]2/C=C\CCCCC[C@H](NCc2ccc(F)c(F)c2)C(=O)N2C[C@H](OC(=O)N3Cc4cccc(F)c4C3)C[C@@H]12 [Compound 626] | < 1000 | < 10000 |
| CC(C)(C)OC(=O)N[C@H]1CCCCC/C=C\[C@@H]2C[C@@]2(C(=O)NCC2CC2)NC(=O)[C@@H]2C[C@@H](OC(=O)N3Cc4cccc(Cl)c4C3)CN2C1=O [Compound 627] | < 100 | < 100 |
| C[C@H](NC(=O)[C@@]12C[C@H]1/C=C\CCCCC[C@H](NC(=O)OC(C)(C)C)C(=O)N1C[C@H](OC(=O)N3Cc4cccc(F)c4C3)C[C@H]1C(=O)N2)c1ccc(F)cn1 [Compound 628] | < 1000 | < 1000 |
| C[C@@H](NC(=O)[C@@]12C[C@H]1/C=C\CCCCC[C@H](NC(=O)OC(C)(C)C)C(=O)N1C[C@H](OC(=O)N3Cc4cccc(F)c4C3)C[C@H]1C(=O)N2)c1ccc(F)cn1 [Compound 629] | < 1000 | < 10000 |
| CC(C)(C)OC(=O)N[C@H]1CCCCC/C=C\[C@@H]2C[C@@]2(C(=O)Nc2cc(C3CC3)[nH]n2)NC(=O)[C@@H]2C[C@@H](OC(=O)N3Cc4cccc(F)c4C3)CN2C1=O [Compound 630] | < 1000 | < 10000 |
| CNC(=O)[C@@H](NC(=O)[C@@]12C[C@H]1/C=C\CCCCC[C@H](NC(=O)OC(C)(C)C)C(=O)N1C[C@H](OC(=O)N3Cc4cccc(F)c4C3)C[C@H]1C(=O)N2)c1ccc(F)cc1 [Compound 631] | < 100 | < 1000 |
| CNC(=O)[C@H](NC(=O)[C@@]12C[C@H]1/C=C\CCCCC[C@H](NC(=O)OC(C)(C)C)C(=O)N1C[C@H](OC(=O)N3Cc4cccc(F)c4C3)C[C@H]1C(=O)N2)c1ccc(F)cc1 [Compound 632] | < 1000 | < 10000 |
| CC(C)(C)OC(=O)N[C@H]1CCCCC/C=C\[C@@H]2C[C@@]2(C(=O)N[C@@H]2CCS(=O)(=O)C2)NC(=O)[C@@H]2C[C@@H](OC(=O)N3Cc4cccc(F)c4C3)CN2C1=O [Compound 633] | < 1000 | < 1000 |

| Structure (SMILES) | IC50 [1] [nM] | EC50 [2] [nM] |
| --- | --- | --- |
| CC(C)(C)OC(=O)N[C@H]1CCCCC/C=C\[C@@H]2C[C@@]2(C(=O)N[C@H]2CCS(=O)(=O)C2)NC(=O)[C@@H]2C[C@@H](OC(=O)N3Cc4cccc(F)c4C3)CN2C1=O [Compound 634] | < 1000 | < 10000 |
| CC(C)(C)OC(=O)N[C@H]1CCCCC/C=C\[C@@H]2C[C@@]2(C(=O)Nc2n[nH]c(C3CC3)n2)NC(=O)[C@@H]2C[C@@H](OC(=O)N3Cc4cccc(F)c4C3)CN2C1=O [Compound 635] | < 100 | < 1000 |
| CC(C)(C)OC(=O)N[C@H]1CCCCC/C=C\[C@@H]2C[C@@]2(C(=O)Nc2n[nH]cc2C2CC2)NC(=O)[C@@H]2C[C@@H](OC(=O)N3Cc4cccc(F)c4C3)CN2C1=O [Compound 636] | < 1000 | < 100 |
| N#CNC(=O)[C@@]12C[C@H]1/C=C\CCCCC[C@H](NC(=O)OC1CCCC1)C(=O)N1C[C@H](OC(=O)N3Cc4cccc(F)c4C3)CC1C(=O)N2 (stereo partly shown) [Compound 637] | < 100 | > 10000 |
| N#CNC(=O)[C@@]12C[C@H]1/C=C\CCCCC[C@H](NC(=O)C1CC1)C(=O)N1C[C@H](OC(=O)N3Cc4cccc(F)c4C3)CC1C(=O)N2 (stereo partly shown) [Compound 638] | < 1000 | > 10000 |
| CC(C)OC(=O)N[C@H]1CCCCC/C=C\[C@@H]2C[C@@]2(C(=O)NC#N)NC(=O)C2C[C@@H](OC(=O)N3Cc4cccc(F)c4C3)CN2C1=O (stereo partly shown) [Compound 639] | < 1000 | > 10000 |
| CC(C)(C)C(=O)N[C@H]1CCCCC/C=C\[C@@H]2C[C@@]2(C(=O)NC#N)NC(=O)C2C[C@@H](OC(=O)N3Cc4cccc(F)c4C3)CN2C1=O (stereo partly shown) [Compound 640] | < 100 | > 10000 |
| CC(C)(C)OC(=O)N[C@H]1CCCCC/C=C\[C@@H]2C[C@@]2(C(=O)NC#N)NC(=O)C2C[C@@H](OC(=O)N3Cc4cccc(Cl)c4C3)CN2C1=O (stereo partly shown) [Compound 641] | < 100 | < 10000 |
| N#CNC(=O)[C@@]12C[C@H]1/C=C\CCCCC[C@H](NC(=O)CCC(F)(F)F)C(=O)N1C[C@H](OC(=O)N3Cc4cccc(F)c4C3)CC1C(=O)N2 (stereo partly shown) [Compound 642] | < 1000 | > 10000 |
| Cc1ccc(CN[C@H]2CCCCC/C=C\[C@@H]3C[C@@]3(C(=O)NC#N)NC(=O)C3C[C@@H](OC(=O)N4Cc5cccc(F)c5C4)CN3C2=O)o1 (stereo partly shown) [Compound 643] | < 1000 | > 10000 |
| O=C(N[C@H]1CCCCC/C=C\[C@@H]2C[C@@]2(C(=O)NCC2CC2)NC(=O)[C@@H]2C[C@@H](OC(=O)N3CCc4ccccc4C3)CN2C1=O)OC1CCCC1 [Compound 644] | < 100 | < 1000 |
| CNc1c(NC(=O)[C@@]23C[C@H]2/C=C\CCCCC[C@H](NC(=O)OC(C)(C)C)C(=O)N2C[C@H](OC(=O)N4Cc5cccc(F)c5C4)C[C@H]2C(=O)N3)c(=O)c1=O [Compound 646] | < 1000 | > 10000 |
| O=C1N[C@]2(C(=O)NCC3CC3)C[C@H]2/C=C\CCCCC[C@H](Nc2c(N3CCC3)c(=O)c2=O)C(=O)N2C[C@H](OC(=O)N3Cc4cccc(F)c4C3)C[C@@H]12 [Compound 647] | < 100 | < 10000 |
| CC(C)(C)OC(=O)N[C@H]1CCCCC/C=C\[C@@H]2C[C@@]2(C(N)=O)NC(=O)[C@@H]2C[C@@H](OC(=O)N3Cc4cccc(F)c4C3)CN2C1=O [Compound 648] | < 1000 | > 10000 |
| CC(C)(C)OC(=O)N[C@H]1CCCCC/C=C\[C@@H]2C[C@@]2(C(=O)NC(=O)C2CC2)NC(=O)[C@@H]2C[C@@H](OC(=O)N3Cc4ccccc4C3)CN2C1=O [Compound 701] | < 100 | < 100 |
| CNC(=O)NC(=O)[C@@]12C[C@H]1/C=C\CCCCC[C@H](NC(=O)OC(C)(C)C)C(=O)N1C[C@H](OC(=O)N3Cc4ccccc4C3)C[C@H]1C(=O)N2 [Compound 702] | < 1000 | < 1000 |
| CC(C)(C)OC(=O)N[C@H]1CCCCC/C=C\[C@@H]2C[C@@]2(C(=O)NC(=O)c2ccccc2)NC(=O)[C@@H]2C[C@@H](OC(=O)N3Cc4ccccc4C3)CN2C1=O [Compound 705] | < 100 | < 100 |
